Experimental data taken from ChEMBL document CHEMBL1144278, “A new bactericidal lead structure for the protection of materials” (Bioorg Med Chem Lett, 2005).
Values after ≈ are worked out from the molar mass of the structure shown.

What was measured:
[1] = tested on: Pseudomonas aeruginosa; experiment: Minimum inhibitory concentration against Pseudomonas aeruginosa NCIB 6749 was determined in chem. def. medium; format: functional
[2] = tested on: Pseudomonas aeruginosa; experiment: Minimum inhibitory concentration against Pseudomonas aeruginosa NCIB 6749 was determined in complex medium; format: functional
[3] = Half life period was determined; format: ADME; conditions: pH 9, 50 °C
[4] = tested on: Pseudomonas aeruginosa; experiment: Minimum inhibitory concentration against Pseudomonas aeruginosa NCIB 6749 was determined in agar medium; format: functional
[5] = tested on: Alcaligenes faecalis; experiment: Minimum inhibitory concentration against Alcaligenes faecalis was determined in agar medium; format: functional
[6] = Half life periof was determined; format: ADME
[7] = Lethal dose in rat; format: toxicity; conditions: in vivo
[8] = tested on: Bacteria; experiment: Minimum inhibitory concentration against Corynebacterium was determined in agar medium; format: functional
[9] = tested on: Pseudomonas aeruginosa; experiment: Minimum inhibitory concentration against Pseudomonas aeruginosa NCIB 12201 was determined in agar medium; format: functional
[10] = tested on: Bacillus subtilis; experiment: Minimum inhibitory concentration against Bacillus subtilis; format: functional
[11] = tested on: Pseudomonas aeruginosa; experiment: Minimum inhibitory concentration against Pseudomonas aeruginosa ATCC 15442 was determined in agar medium; format: functional

| Structure (SMILES) | MIC [1] [µg/mL] | MIC [2] [µg/mL] | also measured |
| --- | --- | --- | --- |
| O=C(OCC(Cl)(Cl)Cl)N(C(=O)OCC(Cl)(Cl)Cl)c1onc2c1CCC2 | 10 (≈ 21.1 µM) | 5 (≈ 10.5 µM) |  |
| O=C(Nc1onc2c1CCC2)C(F)(F)F |  |  | half-life [3]: 105 h |
| CC(C)COC(=O)N(C(=O)OCC(C)C)c1onc2c1CCC2 | 10 (≈ 30.8 µM) | 5 (≈ 15.4 µM) |  |
| CCCC(=O)N(C(=O)CCC)c1onc2c1CCC2 |  |  | half-life [3]: 6 h |
| O=C(OCCCl)N(C(=O)OCCCl)c1onc2c1CCC2 | 10 (≈ 29.7 µM) | 5 (≈ 14.8 µM) |  |
| CCCCOC(=O)N(C(=O)OCCCC)c1onc2c1CCC2 | 10 (≈ 30.8 µM) | 10 (≈ 30.8 µM) |  |
| Nc1onc2c1CCC2 |  |  | MIC [4]: < 1 µg/mL; MIC [5]: < 1 µg/mL; half-life [6]: 97 h; LD50 [7]: < 300 mg/kg; MIC [8]: < 1 µg/mL; MIC [9]: 7.5 µg/mL (≈ 60.4 µM); MIC [10]: 5 µg/mL (≈ 40.3 µM); MIC [11]: 5 µg/mL (≈ 40.3 µM) |

Now from value to compound, other results behind:

| MIC [1] [µg/mL] | MIC [2] [µg/mL] | Structure (SMILES) | also measured |
| --- | --- | --- | --- |
| 10 (≈ 23.5 µM) | 5 (≈ 11.7 µM) | O=C(OCCBr)N(C(=O)OCCBr)c1onc2c1CCC2 |  |
| 10 (≈ 34.2 µM) | 10 (≈ 34.2 µM) | C=C(C)OC(=O)N(C(=O)OC(=C)C)c1onc2c1CCC2 |  |
